Data published in patent publication US11535643B2, “Macrolides with modified desosamine sugars and uses thereof” (President and Fellows of Harvard College, priority 2015, dated 2022).
In brackets after ≈: the same amount, converted by molar mass.

Columns and labels:
Type in all cases: cell-based
E. faecalis = experiment: Broth dilution MIC determination (CLSI) against E. faecalis strains
Description: (§1) Minimum inhibitory concentrations (MICs) for macrolides described herein have been determined for unique strains of S. aureus, S. pneumoniae, S. pyogenes, E. faecalis, E. coli, A. baumannii, K. pneumoniae, P. aeruginosa, and H. influenzae, including several multidrug-resistant strains, with a special focus on macrolide resistant mechanisms. Azithromycin and solithromycin were included as control compounds. CLSI standard procedures for broth dilution MIC determination were used. Data for exemplary compounds described herein is shown in Tables M1-M7 and in Tables N1-N4.

S. pyogenes = experiment: Broth dilution MIC determination (CLSI) against S. pyogenes strains
Description: as §1

S. pneumoniae = experiment: Broth dilution MIC determination (CLSI) against S. pneumoniae strains
Description: as §1

K. pneumoniae = experiment: Broth dilution MIC determination (CLSI) against K. pneumoniae strains
Description: as §1, with “used.” for “used. Data for exemplary compounds described herein is shown in Tables M1-M7 and in Tables N1-N4.”

E. coli = experiment: Broth dilution MIC determination (CLSI) against E. coli strains
Description: as §1

P. aeruginosa = experiment: Broth dilution MIC determination (CLSI) against P. aeruginosa strains
Description: as §1

S. aureus = experiment: Broth dilution MIC determination (CLSI) against S. aureus strains
Description: as §1

A. baumannii = experiment: Broth dilution MIC determination (CLSI) against A. baumannii strains
Description: as §1

CCC1OC(=O)C(C)C(=O)C(C)C(OC2OC(C)CC(N(CCO)CCO)C2O)C(C)(OC)CC(C)CNC(C)C2N(CCCCn3cc(-c4cccc(N)c4)nn3)C(=O)OC12C (stereo not drawn) [FSM-120379]
MIC (E. faecalis; E. faecalis ATCC29212, strain MP-24 (Table N2)): 32 µg/mL (≈ 36 µM) | MIC (E. faecalis; E. faecalis van resistant, strain UNT-039 (Table N2)): >64 µg/mL | MIC (S. pyogenes; S. pyogenes ATCC19615, strain MP-19 (Table N2)): 4 µg/mL (≈ 4.5 µM) | MIC (S. pyogenes; S. pyogenes mac resistant, strain MP-625 UNT-014 (Table N2)): 16 µg/mL (≈ 18 µM) | MIC (S. pneumoniae; S. pneumoniae ATCC49619, strain MP-21 (Table N2)): 2 µg/mL (≈ 2.25 µM) | MIC (S. pneumoniae; S. pneumoniae mefA, strain MP-626 UNT-038 (Table N2)): 1 µg/mL (≈ 1.13 µM) | MIC (S. pneumoniae; S. pneumoniae mefA, strain MP-627 UNT-039 (Table N2)): 1 µg/mL (≈ 1.13 µM) | MIC (K. pneumoniae; K pneumomae ATCC10031, strain MP-14 (Table N2)): 32 µg/mL (≈ 36 µM) | MIC (K. pneumoniae; K. pneumoniae clinical, strain MP546 (Table N2)): >64 µg/mL | MIC (K. pneumoniae; K. pneumoniae clinical, strain MP548 (Table N2)): >64 µg/mL | MIC (E. coli; E. coli ATCC25922, strain MP-4 (Table N2)): >64 µg/mL | MIC (E. coli; E. coli ATCC25922:tolC, strain MP-9 (Table N2)): 32 µg/mL (≈ 36 µM) | MIC (E. coli; E. coli clinical, strain MP541 (Table N2)): >64 µg/mL | MIC (E. coli; E. coli clinical-cErm, strain MP532 (Table N2)): >64 µg/mL | MIC (P. aeruginosa; P. aeruginosa ATCC27853, strain MP-3 (Table N2)): >64 µg/mL | MIC (P. aeruginosa; P. aeruginosa PAO1, strain MP-7 (Table N2)): >64 µg/mL | MIC (P. aeruginosa; P. aeruginosa PAO1:mex, strain MP-8 (Table N2)): >64 µg/mL | MIC (S. aureus; S. aureus (MRSA) GISA USA600, strain MP-619 UNT-120 (Table N2)): >64 µg/mL | MIC (S. aureus; S. aureus (MRSA) ST-228 cErm, strain MP-513 (Table N2)): >64 µg/mL | MIC (S. aureus; S. aureus (MRSA) USA100, strain MP-618 UNT-096 (Table N2)): >64 µg/mL | MIC (S. aureus; S. aureus (MRSA) USA300, strain MP-549 (Table N2)): >64 µg/mL | MIC (S. aureus; S. aureus (MRSA) ermA phenotype, strain MP-620 UNT-146 (Table N2)): >64 µg/mL | MIC (S. aureus; S. aureus ATCC29213, strain MP-12 (Table N2)): >64 µg/mL | MIC (S. aureus; S. aureus ATCCBAA-977, strain MP-17 (Table N2)): >64 µg/mL | MIC (A. baumannii; A. baumannii ATCC19606, strain MP-15 (Table N2)): >64 µg/mL | MIC (A. baumannii; A. baumannii clinical, strain MP576 (Table N2)): >64 µg/mL | MIC (A. baumannii; A. baumannii clinical, strain MP577 (Table N2)): >64 µg/mL
